Data reported in US8524744B2, “Arylamine ketones, their preparation methods, the pharmaceutical composition containing them and their use” (Institute of Mataria Medica, Chinese Academy of Medical …, priority 2004, dated 2013).
pIC50, pKi: −log10 of the molar value. Where a name gives a salt, the structure may show the parent alone.

Experiments:
[1] = system: adjuvant arthritis in rat; test: adjuvant arthritis in rat (therapeutic effect); type: in vivo; details: orally 100 mg·kg^−1 during 19-25th day, SD rats
Method: SD rats (male, 190±10 g) were randomly divided into two groups (treatment and control) with 10 animals for each group. At 0 day 0.1 ml of Freund's complete adjuvant was intracutaneously injected into the right posterior foot. For therapeutic experiment the animals were orally administrated with the compound or solvent during 19-25th day. The perimeter of two ankle joint was measured and the inflammation of anterior foot, ear and tail were judged by scoring for every 3 days until 28 th day.

[2] = system: IgG in serum; test: IgG (antibody for anti-type II collagen) in serum of rat with arthritis induced by type II collagen; type: in vivo; details: Dose 100 mg · kg^−1 × 13 d, orally
Method: (§1) 0.1 ml of type II H collagen (2 mg·ml^−1) was intracutaneously injected into the hind foot of Wistar rat (male, 100±10 g) (d0). Seven days later 0.1 ml of type II collagen was intracutaneously injected into the root of tail. At 19th day (d19) the animals inflamed were selected to supply the experiment and randomly divided into two groups. […] The perimeter of the ankle joint of two hind feet, weight of body was measured and the systemic inflammation (including the toes of front and hind feet, ears and tails) was judged by scoring every 3 days. At 41th day 40 μl of 0.2% type II collagen was intracutaneously injected into the right ear. Twenty-four hr later the edema level was evaluated by weighing the ponderance of ear piece (diameter: 8 mm). At 42th day the blood was collected by decapitating. The serum was separated by centrifugating. The contents of antibody for anti-type II collagen, cytokine TNF-α, IL-1β in serum were determined by ELISA kit.

[3] = system: angiogenesis of the chronic granulomatous air pouch in mice; test: angiogenesis of the chronic granulomatous air pouch in mice; type: in vivo, mouse; details: orally
Method: 3 ml of air was injected into the dorsal subcutaneous tissue. 24 hr later, 0.5 ml of 0.1% croton oil in Freund's complete adjuvant was injected into the air pouch. Meanwhile the compound or solvent was orally administrated everyday. At sixth day the mice were anaesthetized and kept at 40° C. for 10 min. 1 ml of 1% carmine red containing 5% gelatin was injected into the tail vein. The animal was kept at 0-4° C. for 2-3 hr. The air-pouch tissue was detached, dried in oven at 56° C. for 48 hr, weighed and cut to small pieces. 2 ml of digesting fluid was added into the tissue. The carmine red was solved by NaOH (5 mol·L^−1). The supernatant was isolated and filtered. The absorbance was measured at 540 nm. The content of carmine red was calculated according to the correct curve.

[4] = system: macrophages from mouse peritoneal cavity; test: chemotaxis of macrophages from mouse peritoneal cavity induced by PAF; type: cell-based; details: Macrophage, 2 hr, read-out: IC50, inhibition of chemotaxis
Method: 4% of sodium mercaptoethanol was injected into C57BL/6 mouse peritoneal cavity to induce macrophages. The cells in peritoneal cavity were collected after injection for 3-4 days. 27 μl of irritant was added into the well at low part of the chemotaxis plate. The filter membrane was covered on the wells and the top part of the plate was assembled on the filter. 55 μl of cells suspension with various concentrations of the compounds or solvent was added into the well at top part of the plate. The plate was placed into incubater with 5% CO2 at 37° C. for 2 hr. The filter was taken out, stained by hematoxylin and dehydrated. The cells migrated into the other side of the filter was counted by microscope.

[5] = system: rat granuloma induced by cotton ball; test: rat granuloma induced by cotton ball; type: in vivo; details: orally, 100 mg·kg^−1, 7 days, Wistar rats
Method: Wistar rats (male, 165±15 g) were randomly divided into two groups (treatment and control) with 10 animals for each group. 10 mg of steriled cotton ball was planted into the two groins of the rat under the anaesthetized by ether. The animals were orally administrated with the compound for 7 days. At seventh day the cotton ball was taken out, dried by the oven and weighed. The hyperplasia of granuloma was evaluated by the increase of weight of dried cotton ball.

[6] = molecular target: T1, PAF receptors of macrophages from mouse peritoneal cavity (Mus musculus, UniProt Q62035); test: competitive binding of [3H]-PAF to its receptors of macrophages from mouse peritoneal cavity; details: 4° C, 150 min, read-out: Ki, competition with [3H]-PAF binding
T1 construct: The cells in peritoneal cavity were collected after injection for 3-4 days; endogenous in cells; host or cells: adherent peritoneal macrophages of C57BL/6 mice (primary)
Method: 4% of sodium mercaptoethanol was injected into C57BL/6 mouse peritoneal cavity to induce macrophages. The cells in peritoneal cavity were collected after injection for 3-4 days. 500 μl of suspension (5×10^5cells·ml^−1) was inoculated into 24-well culture plate which was placed into the incubator with 5% CO2 at 37° C for 2.5 hr. The non-adherent cells and serum in media were discarded. 490 μl of Tyrode-Hepes solution and 5 μl of [^3H]-PAF (final concentration: 2.8 nmol·L^−1) were added into each well. 5 μl of unlabeled PAF (5 μmol·L^1) was added into the well for the nonspecific binding. The series concentrations of compound were added into the well for the competitive binding and the corresponding volume of solvent was added into the wells for the total binding or the nonspecific binding. The reaction fluid was incubated at 4° C for 150 min and rinsed to wipe off the free labeled ligand. 300 μl of NaOH (0.3 mol·L^−1) was added to lyse the cells. The lysate fluid was transferred into a vial in which 7 ml of scintillation solution was added. The radioactivity strength was measured by scintillation counter.

[7] = system: rat arthritis induced by type II collagen; test: rat arthritis induced by type II collagen; type: in vivo; details: 100 mg · kg^−1 × 13 d, orally, Wistar rat
Method: as §1

[8] = system: polymorphonuclear leucocytes from rat pleural cavity; test: release of β-glucuronidase by polymorphonuclear leucocytes from rat pleural cavity in vitro (PAF as irritant); type: cell-based
In short: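 Carrageenan-elicited pleural PMNs from Wistar rats (2.5×10^6 cells/ml, Dulbecco's buffer) were incubated with compound 15 min at 37° C, then cytochalasin B 5 min, then PAF 5 min. β-Glucuronidase in supernatant was assayed with phenolphthalein-glucuronic acid, 18 h at 37° C, OD 550 nm after NaOH.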

T1 sequence (Q62035 whole entry): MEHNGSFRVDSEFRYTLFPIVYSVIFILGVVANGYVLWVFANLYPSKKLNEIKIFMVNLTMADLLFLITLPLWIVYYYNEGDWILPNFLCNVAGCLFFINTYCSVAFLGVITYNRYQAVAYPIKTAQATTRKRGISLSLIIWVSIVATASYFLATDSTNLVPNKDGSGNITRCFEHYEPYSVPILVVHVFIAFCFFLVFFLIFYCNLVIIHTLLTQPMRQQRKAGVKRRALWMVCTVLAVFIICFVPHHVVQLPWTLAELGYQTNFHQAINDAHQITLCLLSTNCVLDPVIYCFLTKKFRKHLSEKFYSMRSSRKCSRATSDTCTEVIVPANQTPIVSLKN

In the case of `CCOC(=O)C1CCN(CCC(=O)/C=C/c2ccc(Cl)cc2)CC1` [Compound 3, 5-[(4-Ethoxycarbonyl)piperidyl]-1-(4-chlorophenyl)-1-penten-3-one hydrochloride], the “Inhibition (%) of adjuvant arthritis” value ([1]; 21th day) was 31.9%, the “Inhibition (%) of adjuvant arthritis” value ([1]; 23th day) was 49.3% and the “Inhibition (%) of adjuvant arthritis” value ([1]; 25th day) was 54.5%. The “Inhibition (%) of adjuvant arthritis” value ([1]; 27th day) was 59.3%, the “Inhibition (%) of production of IgG in serum” value [2] was 38.4% and the “Inhibition (%) of angiogenesis (content of carmine red)” value (from here on “Inhibition (%) of angiogenesis”) ([3]; Dose 12.5 mg · kg^−1 × 5 d) was 17.8%. For the same molecule, the “Inhibition (%) of angiogenesis” value ([3]; Dose 25 mg · kg^−1 × 5 d) was 20.6%, the “Inhibition (%) of angiogenesis” value ([3]; Dose 50 mg · kg^−1 × 5 d) was 28.4% and the pIC50 [4] was 9.32. For the same molecule, the “Inhibition (%) of rat granuloma” value [5] was 37.93%, the pKi [6] was 5.36 and the “Inhibition (%) Score for systemic inflammation” value [7] was 52.6%. For the same molecule, the “Inhibition (%) Swelling of left ankle joint” value [7] was 67.5%, the “Inhibition (%) Swelling of right ankle joint” value [7] was 68.8% and the “Inhibition (%) of β-glucuronidase release” value ([8]; Dose 2 × 10^−6 mol · L^−1, Irritant 1 × 10^−7 mol · L^−1) was 142.96%. For the same molecule, the pIC50 ([8]; Leucocyte, rat polymorphonuclear leucocytes) was 9.65.
